Measurements taken from patent US20220162559A1, “MYOCARDIAL ORGANOIDS AND METHODS OF MAKING AND USES THEREOF” (CLEMSON UNIVERSITY RESEARCH FOUNDATION, priority 2018, published 2022).
Blank lines part the entries; values can stand above or below the compound they belong to.

Columns and labels:
Type in all cases: cell-based, human
[1] = system: cardiac infarct organoids; test: Contraction analysis of beating organoids (contraction amplitude, beat rate), infarct organoids
Method: For the cardiac infarction protocol, microtissues (about150 μm radius on D0) were placed in a hypoxia chamber within the incubator at about 10% O2 with 1 μM of norepinephrine (NE, A7257, Sigma) after 4 days of pre-culture. Media was changed with fresh NE every 2 days for the length of the experiment (10 days). For extended validation studies, 20 ng/ml of human recombinant transforming growth factor beta 1 (TGF-β1, ab50036, Abcam, Cambridge, UK), 10 nM of JQ1 (SML1524, Sigma), and 2 ng/ml of human recombinant vascular endothelial growth factor (VEGF, CC-4114A, Lonza) was added to the media every 2 days for infarct organoids for the length of the experiment (10 days).
(§1) Videos of spontaneously beating spheroids from each group were recorded immediately out of the incubator (to reduce temperature induced changes in beating) for each condition using a Carl Zeiss Axiovert A1 Inverted Microscope and Zen 2011 software (Zeiss, Gottingen, Germany). Threshold edge-detecting in ImageJ software (NIH—US National Institutes of Health) was used on high contrast spheroid picture series and graphed to realize beating profiles of fractional area change, from which contraction amplitude was calculated. Contraction amplitudes were calculated as the percent change in fractional area change amplitude between contraction and relaxation. Beat rate was calculated as the number of beats per second.

[2] = system: control cardiac organoids; test: Contraction analysis of beating organoids (contraction amplitude, beating), control organoids
Source text: Non-adhesive agarose hydrogel molds were used as microtissue fabrication molds made from commercial master micro-molds from Microtissues, Inc (Providence, R.I.). Working cell suspensions of each cell type were used at about 4.0×10^6 cells/ml to make organoid cell ratio mixtures of about 50% hiPSC-CMs and about 50% non-myocyte (4:2:1 ratio of FBs, HUVECs, hADSCs, respectively) and mixed with 1 volume media for a final concentration of about 2.0×10^6 cells/ml. hiPSC-CM only spheroids were fabricated using 100% hiPSC-CMs at a final concentration of about 2.0×10^6 cells/ml. Approximately 75 μl of the cell suspension was pipetted into each agarose mold. […]
as §1

[3] = system: cardiac infarct organoids; test: TUNEL apoptotic staining of organoid sections; details: 1 μM, 48 hours of exposure
Method: The Roche In Situ Cell Death Detection Kit (Sigma) was used to visualize apoptotic cells in frozen sections of cardiac organoids based on the Roche protocol. Briefly, cardiac organoid frozen sections were fixed with 4% paraformaldehyde in PBS for 20 min at room temperature. Following washing in PBS for 30 minutes, samples were incubated in a permeabilization solution (0.1% Triton X-100 and 0.1% sodium citrate in PBS) for 2 minutes on ice. Then 50 μl of the TUNEL reaction mixture were added to samples and incubated at 37° C. for 1 hr. After washing in PBS (2 times at 5 min), nuclei were counterstained with DAPI (Molecular Probes/Invitrogen) diluted in PBS for 15 min at ambient temperature. Following the final wash procedure (PBS, 2 times at 5 min), glass cover slips were added to the slides using Fluoro-Gel (Electron Microscopy Sciences). TCS SP5 AOBS laser scanning confocal microscope (Leica Microsystems) was used for imaging.

[4] = system: cardiac infarct organoids; test: Immunofluorescent staining of organoid sections (vimentin, alpha sarcomeric actinin, αSMA, collagen), infarct organoids
Method: (§2) Freshly collected organoids were flash frozen in Tissue-Tek OCT compound (Sakura, Torrance, Calif.). Embedded spheroids were cryosectioned into 7 μm thickness layers onto glass slides for immunofluorescence staining. The sections were fixed with pre-cooled acetone (−20° C.) for 10 min. After washing (2 times at 5 min) in PBS with 0.1% Triton X-100 (PBST) (Sigma), blocking buffer was made with 10% serum corresponding to host species of secondary antibody in PBST and added to sections for 1 hr at room temperature. Sections were incubated with primary antibody diluted in PBST (1:200) overnight at 4° C. or 2 hrs at room temperature: mouse anti-alpha smooth muscle actin (A5228, Sigma), mouse anti-alpha sarcomeric actinin (ab9465, Abcam), rabbit anti-collagen type I (ab34710, Abcam), rabbit anti-vimentin (ab92547, Abcam), rabbit anti-von Willebrand factor (ab6994, Abcam). After washing in PBST (2 times at 5 min), sections were incubated with complement secondary antibodies or conjugated primary antibodies diluted in PBST for 1 hr at room temperature: Alexa Fluor 488 phalloidin (A12379, Thermo), goat anti-mouse Alexa Fluor 546 (A1103, Thermo), goat anti-rabbit Alexa Fluor 647 (111-605-144, Jackson ImmunoResearch, West Grove, Pa.). After washing in PBST (2 times at 5 min), nuclei were counterstained with DAPI (Molecular Probes/Invitrogen, Eugene, Oreg.) diluted in PBST for 15 min at room temperature. Following the final wash procedure (PBST, 2 times at 5 min), glass cover slips were added using Fluoro-Gel (Electron Microscopy Sciences, Hatfield, Pa.) and stored in 4° C. until imaging. TCS SP5 AOBS laser scanning confocal microscope (Leica Microsystems, Inc., Exton, Pa.) was for imaging. Vimentin radial density was calculated using the Radial Profile ImageJ plugin and normalized to radius equal to 1. Each analysis consisted of high resolution images at 400× total magnification of cross sections of different organoids.

[5] = system: control cardiac organoids; test: Immunofluorescent staining of organoid sections (vimentin), control organoids; details: 48 hrs of exposure
Method: as §2, with “After washing in PBST (2 times at 5 min), nuclei were counterstained with DAPI (Molecular Probes/Invitrogen, Eugene, Oreg.) diluted in PBST for 15 min at room temperature. Following the final wash procedure (PBST, 2 times at 5 min), glass cover slips were added using Fluoro-Gel (Electron Microscopy Sciences, Hatfield, Pa.) and stored in 4° C. until imaging. TCS SP5 AOBS laser scanning confocal microscope (Leica Microsystems, Inc., Exton, Pa.) was for imaging.” left out, “Each analysis consisted of high resolution images at 400× total magnification of cross sections of different organoids.” left out

[6] = system: hiPSC-CMs; test: 2D hiPSC-CM culture with in vitro infarction protocol and DOX; details: hypoxic culture (1%) with 1 μM NE 2 days prior to 2 days DOX treatment
Source text: As a control, we performed 2D studies using hiPSC-CMs with DOX to evaluate the combined effects of an in vitro infarction protocol and DOX on hiPSC-CMs. […] Nearly 100% of cells death was found for hiPSC-CMs after 4 days of the same hypoxic culture using hiPSC-CM media with galactose but no glucose, which has been attributed to the lack of glucose in the hiPSC-CM media. In addition, extended culture of 2D hiPSC-CMs in organoid media to mimic prolonged organoid infarction protocol led to minimal and irregular hiPSC-CM contractile behavior accompanied with the reduction of αSA+ cells. In contrast to the inherent difficulties of using 2D hiPSC-CM culture systems to model post-MI responses, human infarct organoids provide a robust, biomimetic […] tissue-level context to evaluate the effects of DOX on the post-MI cardiac tissues.

[7] = system: cardiac infarct organoids; test: Mechanical testing using micropipette aspiration (elastic modulus)
Method: A micropipette aspiration was performed in media similarly to previous studies using a custom-built fluid reservoir to generate a fixed pressure of 40 cm H2O (about 3.9 kPa) in pulled micropipette to apply the suction force on test organoids.^23,24 Validation and stability of pressure changes were confirmed using an in-line 5 kPa 2-port pressure transducer with about 1 Pa sensitivity (Honeywell, Morristown, N.J.). Micropipettes were pulled to a final inner diameter of approximately 40-60 μm. Prior to and during testing, organoids were soaked in a 30 mM solution of 2,3-butanedione monoxime (BDM) (Sigma) in media for 5-10 min to eliminate contractions to reduce the effect of contractile status on tissue stiffness. Pressure was applied to the organoid surface and pictures were recorded until reaching equilibrium deformation (about 5 min) (FIG. 2F). Under the homogeneous half-space model assumptions^23, the change in length (L) from pre-deformation to equilibrium deformation was used to calculate the elastic modulus according the previously established relationship: E=3aΔp/2πL Φ(η), where E is elastic modulus, a is the inner micropipette radius, Δp is the applied pressure, Φ( ) is the wall function (under punch model assumptions), and η is the wall parameter.^24,25

[8] = system: cardiac infarct organoids; test: Calcium transient imaging with two-photon light sheet microscope (beating synchronization)
Source text: To functionally interpret the transcriptomic shifts in cardiomyocyte calcium handling and arrhythmogenesis, a two-photon, laser-scanning, light sheet (2PLS) microscope was used that allowed for deeper tissue penetration with high-speed imaging (50 frames/sec) and orthogonal selected plane (about 4 μm thickness) illumination.^27 Given its strength for in situ imaging, the 2PLS microscope allowed for the visualization of calcium handling in the interior regions of 3D cardiac microtissues to study calcium handling and arrhythmogenicity across the organoids. Organoids were fabricated with GCaMP6-labeled hiPSC-CMs and calcium transient amplitudes (ΔF/F0) were measured from “cell-sized” regions of interest (ROIs) (representing individual cardiomyocytes) inside organoids. […] In particular, imaging and calcium transient profiles of synchronized edge and interior cardiomyocyte ROIs from human induced pluripotent stem cell-derived-cardiomyocyte (hiPSC-CM) spheroids were cultured in the cardiac organoid infarction protocol.

[9] = 10 nM added to infarct organoid culture
[10] = 20 ng/ml added during infarction protocol

IC50 ([1]; Homo sapiens, infarct organoids, 48 hrs of exposure starting on D10): ~150 nM
concentration at cessation of beating ([1]; infarct organoids): 1 µM
concentration at cessation of beating [2]: 10 µM
IC50 ([2]; Homo sapiens, 48 hrs of exposure starting on D10): ~370 nM
dose inducing an increase in vimentin+ density ([4]; infarct organoids, 48 hrs of exposure): 0.1 µM
αSA staining relative to vehicle control (sarcomeric organization) ([4]; interior of infarct organoids, 0.1 μM): significantly decreases
dose inducing an increase in vimentin+ density [5]: 1.0 µM
Compound: COc1cccc2c1C(=O)c1c(O)c3c(c(O)c1C2=O)C[C@@](O)(C(=O)CO)C[C@@H]3O[C@H]1C[C@H](N)[C@H](O)[C@H](C)O1 [DOX, doxorubicin]
apoptosis (TUNEL analysis) [3]: significantly increased apoptosis
viability and contractile structures/organization of 2D hiPSC-CMs [6]: exacerbation of DOX-induced reduction in viability and reduction in contractile structures/organization

Compound: Cc1sc2c(c1C)C(c1ccc(Cl)cc1)=N[C@@H](CC(=O)OC(C)(C)C)c1nnc(C)n1-2 [JQ1]
vimentin+ density at the infarct organoid edge [4, 9]: significantly reduced
organoid stiffness (elastic modulus) [7, 9]: significant decrease in stiffness
unsynchronized beating of infarct organoids ([8]; 10 nM): reduction of unsynchronization

Compound: NC[C@H](O)c1ccc(O)c(O)c1 [NE, norepinephrine]
beat rate ([1]; 10% O2 with 1 μM for 10 days, versus control organoids): increase in beat rate

Compound: COCCc1ccc(OCC(O)CNC(C)C)cc1 (centres unmarked) [metoprolol]
NE-induced increase in beat rate ([1]; infarct organoids cultured with 10 μM, D10): reversed

Compound: TGF-β1: human recombinant transforming growth factor beta 1, pro-fibrotic stimulus
collagen organization and presence of αSMA+ myofibroblast-like cells [4, 10]: further increased
organoid stiffness (elastic modulus) [7, 10]: significant increase in organoid stiffness

Compound: VEGF
unsynchronized beating of infarct organoids ([8]; 2 ng/ml): reduction of unsynchronization
